Assay results reported in ChEMBL document CHEMBL4831528, “Discovery of Novel Pterostilbene-Based Derivatives as Potent and Orally Active NLRP3 Inflammasome Inhibitors with Inflammatory Activity for Colitis” (J Med Chem, 2021).
Calls of active or inactive are those of the source. The rule behind the calls is not given here.

Key:
[1] = biological target: NACHT, LRR and PYD domains-containing protein 3 (Mus musculus) (UniProt Q8R4B8); test: Inhibition of NLRP3 inflammasome activation in LPS-stimulated mouse bone marrow-derived macrophages assessed as reduction in caspase1 p20 secretion preincubated for 30 mins followed by nigericin addition and measured after 30 mins by Western blot analysis; type: tissue-based; details: Macrophage, time 60.0 min
Target sequence in this assay (Q8R4B8 whole entry, the tested form may be a part): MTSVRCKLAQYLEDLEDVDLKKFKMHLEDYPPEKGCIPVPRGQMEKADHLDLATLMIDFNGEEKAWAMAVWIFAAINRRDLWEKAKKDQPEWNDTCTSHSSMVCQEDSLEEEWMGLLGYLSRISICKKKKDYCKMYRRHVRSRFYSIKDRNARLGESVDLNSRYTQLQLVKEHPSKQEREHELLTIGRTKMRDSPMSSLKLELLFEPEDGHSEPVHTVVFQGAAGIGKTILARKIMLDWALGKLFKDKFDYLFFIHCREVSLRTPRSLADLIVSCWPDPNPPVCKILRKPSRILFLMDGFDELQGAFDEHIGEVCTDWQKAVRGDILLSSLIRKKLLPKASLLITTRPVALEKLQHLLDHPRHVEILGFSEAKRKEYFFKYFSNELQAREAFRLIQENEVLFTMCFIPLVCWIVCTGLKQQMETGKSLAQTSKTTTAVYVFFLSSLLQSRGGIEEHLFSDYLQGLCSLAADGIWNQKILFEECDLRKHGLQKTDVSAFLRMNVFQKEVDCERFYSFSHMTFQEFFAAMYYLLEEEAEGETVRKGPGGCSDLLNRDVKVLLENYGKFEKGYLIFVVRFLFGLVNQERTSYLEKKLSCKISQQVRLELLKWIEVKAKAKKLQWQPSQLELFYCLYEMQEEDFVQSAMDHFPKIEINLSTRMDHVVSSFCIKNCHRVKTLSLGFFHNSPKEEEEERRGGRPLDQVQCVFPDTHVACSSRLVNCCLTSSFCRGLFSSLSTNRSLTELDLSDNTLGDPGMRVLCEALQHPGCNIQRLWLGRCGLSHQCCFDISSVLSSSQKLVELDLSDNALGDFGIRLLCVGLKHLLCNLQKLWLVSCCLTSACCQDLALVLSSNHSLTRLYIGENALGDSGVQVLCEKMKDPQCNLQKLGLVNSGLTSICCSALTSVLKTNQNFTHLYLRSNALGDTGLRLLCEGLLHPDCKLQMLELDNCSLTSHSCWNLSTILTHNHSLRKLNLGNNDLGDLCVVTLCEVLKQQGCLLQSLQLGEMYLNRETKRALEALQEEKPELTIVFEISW

BMDM [2] = test: Effect on NEK7 expression in LPS-stimulated mouse bone marrow-derived macrophages at 0.5 to 2 uM preincubated for 30 mins followed by nigericin addition and measured after 30 mins by Western blot analysis; type: functional, tissue-based; details: dose 0.5-2 µM, time 60.0 min
BMDM [3] = test: Effect on ASC expression in LPS-stimulated mouse bone marrow-derived macrophages at 0.5 to 2 uM preincubated for 30 mins followed by nigericin addition and measured after 30 mins by Western blot analysis; type: functional, tissue-based; details: dose 0.5-2 µM, time 60.0 min
Macrophage = test: Inhibition of NFkappaB activation in LPS-stimulated mouse bone marrow-derived macrophages assessed as reduction in TNFalpha secretion at 0.5 to 2 uM preincubated for 30 mins followed by nigericin addition and measured after 30 mins by ELISA; type: tissue-based; details: dose 0.5-2 µM, time 60.0 min
[4] = biological target: NACHT, LRR and PYD domains-containing protein 3 (Mus musculus) (UniProt Q8R4B8); test: Inhibition of NLRP3 inflammasome activation in LPS-stimulated mouse bone marrow-derived macrophages assessed as reduction in cleaved IL-1beta secretion in supernatant at 2 uM preincubated for 30 mins followed by nigericin addition and measured after 0.5 hrs by Western blot analysis; type: tissue-based; details: Macrophage, time 60.0 min
Target sequence in this assay (Q8R4B8 whole entry, the tested form may be a part): as above

[5] = biological target: NACHT, LRR and PYD domains-containing protein 3 (Mus musculus) (UniProt Q8R4B8); test: Inhibition of NLRP3 inflammasome activation in LPS-stimulated mouse bone marrow-derived macrophages assessed as reduction in pro IL-1beta secretion in cell lysate at 2 uM preincubated for 30 mins followed by nigericin addition and measured after 0.5 hrs by Western blot analysis; type: subcellular; details: Macrophage, time 60.0 min
Target sequence in this assay (Q8R4B8 whole entry, the tested form may be a part): as above

[6] = biological target: NACHT, LRR and PYD domains-containing protein 3 (Mus musculus) (UniProt Q8R4B8); test: Inhibition of NLRP3 inflammasome activation in LPS-stimulated mouse bone marrow-derived macrophages assessed as reduction in ILbeta secretion at 2 uM preincubated for 30 mins followed by nigericin addition and measured after 0.5 hrs by ELISA; type: tissue-based; details: Macrophage, time 60.0 min
Target sequence in this assay (Q8R4B8 whole entry, the tested form may be a part): as above

[7] = biological target: NACHT, LRR and PYD domains-containing protein 3 (Mus musculus) (UniProt Q8R4B8); test: Inhibition of NLRP3 inflammasome activation in LPS-stimulated mouse bone marrow-derived macrophages assessed as reduction in ILbeta secretion at 2 uM preincubated for 30 mins followed by ATP addition and measured after 0.5 hrs by ELISA; type: tissue-based; details: Macrophage, time 60.0 min
Target sequence in this assay (Q8R4B8 whole entry, the tested form may be a part): as above

[8] = biological target: NACHT, LRR and PYD domains-containing protein 3 (Mus musculus) (UniProt Q8R4B8); test: Inhibition of NLRP3 inflammasome activation in LPS-stimulated mouse bone marrow-derived macrophages assessed as reduction in cleaved IL-1beta in supernatant at 2 uM preincubated for 30 mins followed by MSU addition and measured after 0.5 hrs by Western blot analysis; type: tissue-based; details: Macrophage, time 60.0 min
Target sequence in this assay (Q8R4B8 whole entry, the tested form may be a part): as above

[9] = biological target: NACHT, LRR and PYD domains-containing protein 3 (Mus musculus) (UniProt Q8R4B8); test: Inhibition of NLRP3 inflammasome activation in LPS-stimulated mouse bone marrow-derived macrophages assessed as reduction in pro IL-1beta in cell lysate at 2 uM preincubated for 30 mins followed by MSU addition and measured after 0.5 hrs by Western blot analysis; type: subcellular; details: Macrophage, time 60.0 min
[10] = biological target: NACHT, LRR and PYD domains-containing protein 3 (Mus musculus) (UniProt Q8R4B8); test: Inhibition of NLRP3 inflammasome activation in LPS-stimulated mouse bone marrow-derived macrophages assessed as reduction in pro caspase1 in cell lysate at 2 uM preincubated for 30 mins followed by MSU addition and measured after 0.5 hrs by Western blot analysis; type: subcellular; details: Macrophage, time 60.0 min
[11] = biological target: NACHT, LRR and PYD domains-containing protein 3 (Mus musculus) (UniProt Q8R4B8); test: Inhibition of NLRP3 inflammasome activation in LPS-stimulated mouse bone marrow-derived macrophages assessed as reduction in IL-1beta secretion at 2 uM preincubated for 30 mins followed by MSU addition and measured after 0.5 hrs by ELISA; type: tissue-based; details: Macrophage, time 60.0 min
[12] = biological target: NACHT, LRR and PYD domains-containing protein 3 (Mus musculus) (UniProt Q8R4B8); test: Inhibition of NLRP3 inflammasome activation in LPS-stimulated mouse bone marrow-derived macrophages assessed as reduction in IL-1beta secretion at 1 to 4 uM preincubated for 30 mins followed by nigericin addition and measured after 0.5 hrs by Western blot analysis; type: tissue-based; details: Macrophage, dose 1-4 µM
[13] = biological target: NACHT, LRR and PYD domains-containing protein 3 (Mus musculus) (UniProt Q8R4B8); test: Inhibition of NLRP3 inflammasome activation in LPS-stimulated mouse bone marrow-derived macrophages assessed as reduction in caspase1 secretion at 1 to 4 uM preincubated for 30 mins followed by nigericin addition and measured after 0.5 hrs by Western blot analysis; type: tissue-based; details: Macrophage, dose 1-4 µM
[14] = biological target: NACHT, LRR and PYD domains-containing protein 3 (Mus musculus) (UniProt Q8R4B8); test: Inhibition of NLRP3 inflammasome activation in LPS-stimulated mouse bone marrow-derived macrophages assessed as reduction in NEK7-NLRP3 protein-protein interaction preincubated for 30 mins followed by nigericin addition and measured after 30 mins by immunoprecipitation method; type: tissue-based; details: Macrophage, time 60.0 min
[15] = Half life in mouse liver microsomes preincubated for 5 mins followed by NADPH addition and measured after 5 to 60 mins by LC-MS/MS analysis; type: ADME, Microsome; details: time 5-60 min
[16] = Hepatic clearance in mouse liver microsomes preincubated for 5 mins followed by NADPH addition and measured after 5 to 60 mins by LC-MS/MS analysis; type: ADME, Microsome; details: time 5-60 min
[17] = Half life in mouse at 2 mg/kg, iv measured after 0.08 to 24 hrs by LC-MS/MS analysis; type: ADME, organism-based; details: in vivo, time 0.08-24 hrs
[18] = AUC (0 to infinity) in mouse at 2 mg/kg, iv measured after 0.08 to 24 hrs by LC-MS/MS analysis; type: ADME, organism-based; parameters: route intravenous, time upper 24 hrs, dose 2 mg/kg, time lower 0.08 hrs; details: in vivo
Mus musculus [19] = test: Protection against DSS-induced acute ulcerative colitis in C57BL/6 mouse assessed as reduction in body weight at 10 to 20 mg/kg, ig administered for 7 days; type: functional, organism-based; details: dose 10-20 mg/kg, time 7.0 day
Mus musculus [20] = test: Protection against DSS-induced acute ulcerative colitis in C57BL/6 mouse assessed as reduction in adhesion of colon at 10 to 20 mg/kg, ig administered for 7 days; type: functional, organism-based; details: dose 10-20 mg/kg, time 7.0 day
Mus musculus [21] = test: Downregulation of IL6 expression in colon of C57BL/6 mouse model of DSS-induced ulcerative colitis at 10 to 20 mg/kg, ig administered for 7 days by ELISA; type: functional, organism-based; details: dose 10-20 mg/kg, time 7.0 day
Mus musculus [22] = test: Downregulation of phosphorylated STAT3 expression in colon of C57BL/6 mouse model of DSS-induced ulcerative colitis at 10 to 20 mg/kg, ig administered for 7 days by Western blot analysis; type: functional, organism-based; details: dose 10-20 mg/kg, time 7.0 day
Mus musculus [23] = test: Downregulation of COX2 expression in colon of C57BL/6 mouse model of DSS-induced ulcerative colitis at 10 to 20 mg/kg, ig administered for 7 days by Western blot analysis; type: functional, organism-based; details: dose 10-20 mg/kg, time 7.0 day
[24] = Toxicity in C57BL/6 mouse assessed as induction of lethargy at 20 to 40 mg/kg, ig administered for 28 days; type: organism-based; details: in vivo, po, 672 h, dose 20-40 mg/kg, time 28 day
[25] = Toxicity in C57BL/6 mouse assessed as overactivity at 20 to 40 mg/kg, ig administered for 28 days; type: organism-based; details: in vivo, po, 672 h, dose 20-40 mg/kg, time 28 day
[26] = Toxicity in C57BL/6 mouse assessed as effect on heart at 20 to 40 mg/kg, ig administered for 28 days; type: organism-based; details: in vivo, po, 672 h, dose 20-40 mg/kg, time 28 day
[27] = Half life in mouse at 20 mg/kg, po measured up to 24 hrs by LC-MS/MS analysis; type: ADME, organism-based; details: in vivo
[28] = AUC (0 to infinity) in mouse at 20 mg/kg, po measured up to 24 hrs by LC-MS/MS analysis; type: ADME, organism-based; parameters: route oral, dose 20 mg/kg, time <=24; details: in vivo
[29] = Clearance in mouse at 20 mg/kg, po measured up to 24 hrs by LC-MS/MS analysis; type: ADME, organism-based; details: in vivo
[30] = biological target: NACHT, LRR and PYD domains-containing protein 3 (Mus musculus) (UniProt Q8R4B8); test: Inhibition of NLRP3 inflammasome activation in LPS-stimulated mouse bone marrow-derived macrophages assessed as reduction in ASC polymerization at 1 to 4 uM preincubated for 30 mins followed by nigericin addition and measured after 0.5 hrs by DAPI staining based confocal scanning microscopy; details: Macrophage, dose 1-4 µM
Target sequence in this assay (Q8R4B8 whole entry, looked up, the tested form may be a part): as the sequence (Q8R4B8 whole entry, the tested form may be a part) above

## COc1cc(/C=C/c2ccc(NC(=O)C3CC3)cc2)c(/C=C/[N+](=O)[O-])c(OC)c1
[1]
  inhibition: Dose-Dependent Effect
BMDM [2]
  Activity: inactive
BMDM [3]
  Activity: inactive
Macrophage
  inhibition: inactive
[4]
  inhibition: Active
[5]
  inhibition: Active
[6]
  inhibition: Active
[7]
  inhibition: Active
[8]
  inhibition: Active
[9]
  inhibition: Active
[10]
  inhibition: Active
[11]
  inhibition: Active
[12]
  inhibition: Active
[13]
  inhibition: Active
[14]
  inhibition: Dose-Dependent Effect
[15]
  half-life: 43.3 min
[16]
  CLhep predicted: 52.5 mL/min/kg
[17]
  half-life: 57.6 min
[18]
  AUC(0-inf): 583 ng·h/mL
Mus musculus [19]
  Activity: Active
Mus musculus [20]
  Activity: Active
Mus musculus [21]
  Activity: Active
Mus musculus [22]
  Activity: Active
Mus musculus [23]
  Activity: Active
[24]
  Activity: Non-Toxic
[25]
  Activity: Non-Toxic
[26]
  Activity: Non-Toxic
[27]
  half-life: 296 min
[28]
  AUC: 845.93 µg·h/L
[29]
  CL: 9.13 L/h/kg
[30]
  inhibition: Active
